These results are taken from patent US10730815B2, “Method of producing purified stilbene compounds” (MORINAGA & CO., LTD., priority 2014, dated 2020).

The data set in a line: Precipitation of various stilbene compounds by γ-CD: concentration in supernatant (HPLC). Format: physicochemical. The procedure: γ-CD solutions of six different concentrations (42.78, 85.56, 106.95, 128.33, 171.11, 213.89 mg/mL) were prepared.
The mixed solutions were stirred under light shielding conditions at 25° C. for 24 hours. Subsequently, they were subjected to centrifugation at 15,000 rpm at 25° C. for 5 minutes to collect the supernatants. These supernatants were further subjected to centrifugation using the same conditions to obtain another batch of supernatants.
Resveratrol (denoted by “Res” in the figure), rhapontigenin (denoted by “Rha” in the figure), and isorhapontigenin (denoted by “Isorha” in the figure) were used as the stilbene compounds to prepare respective solutions of the stilbene compounds. To each solution, γ-CD was added. Precipitation of these stilbene compounds by γ-CD and the relation between the concentration of γ-CD and the precipitation of the stilbene compounds were examined. Procedures for the preparation of the solutions and the measurement using HPLC were similar to those described in the above Example 1(3).

A value given as a limit tells only on which side of the number the result lay.

On to `COc1cc(/C=C/c2cc(O)cc(O)c2)ccc1O` [Isorha, isorhapontigenin], for which the “Concentration of Isorha in liquid” value reads like this: (γ-CD 0 mg/mL final) 190000 ng/mL; (γ-CD 12.8 mg/mL final) 0 ng/mL; (γ-CD 25.7 mg/mL final) 0 ng/mL; (γ-CD 32.1 mg/mL final) 0 ng/mL; (γ-CD 38.5 mg/mL final) 0 ng/mL; (γ-CD 51.3 mg/mL final) 0 ng/mL. Moreover, for the setting “γ-CD 64.2 mg/mL final”, the “Concentration of Isorha in liquid” value was determined as 0 ng/mL.

As for `Oc1ccc(/C=C/c2cc(O)cc(O)c2)cc1` [Res, Resveratrol], the “Concentration of Res in liquid” value (γ-CD 0 mg/mL final) was found to be 28000 ng/mL; the “Concentration of Res in liquid” value (γ-CD 12.8 mg/mL final) worked out at 20000 ng/mL; the “Concentration of Res in liquid” value (γ-CD 25.7 mg/mL final) came out at 12000 ng/mL; the “Concentration of Res in liquid” value (γ-CD 32.1 mg/mL final) was 10000 ng/mL; the “Concentration of Res in liquid” value (γ-CD 38.5 mg/mL final) was determined as 8200 ng/mL; the “Concentration of Res in liquid” value (γ-CD 51.3 mg/mL final) was found to be 5800 ng/mL. In addition, under “γ-CD 64.2 mg/mL final”, the “Concentration of Res in liquid” value turned out to be 3700 ng/mL.

Regarding `COc1ccc(/C=C/c2cc(O)cc(O)c2)cc1O` [Rha, rhapontigenin], the “Concentration of Rha in liquid” value was 97000 ng/mL (γ-CD 0 mg/mL final); 60000 ng/mL (γ-CD 12.8 mg/mL final); 20000 ng/mL (γ-CD 25.7 mg/mL final); 17000 ng/mL (γ-CD 32.1 mg/mL final); 13000 ng/mL (γ-CD 38.5 mg/mL final); at most 10000 ng/mL (γ-CD 51.3 mg/mL final). Further, the “Concentration of Rha in liquid” value (γ-CD 64.2 mg/mL final) was at most 10000 ng/mL.
